Test results taken from patent publication US20250091989A1, “SMALL MOLECULE PROTEIN SYNTHESIS MODULATORS” (Interdict Bio, Inc., priority 2023, published 2025).
Structures can show the parent of a compound that is named as a salt.

Assays:
Type in all cases: biochemical
Settings in all cases: HeLa S3 lysate, sfGFP/mCherry ratio, 2 hrs at 30° C.
ALK = test: In vitro transcription-translation (IVTT) reporter assay, ALK test sequence
How it was run: (§1)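 Coupled transcription-translation in HeLa S3 lysate with reporter plasmids encoding mCherry-P2A-3×FLAG-TEST-sfGFP behind an EMCV IRES. Compounds were half-log titrated (30 μM-0.1 μM in DMSO dilution plate) into master mix, then DNA was added. Reactions ran 2 hrs at 30° C, were PBS-quenched and read for fluorescence.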

MYC = test: In vitro transcription-translation (IVTT) reporter assay, MYC test sequence
How it was run: as §1

KRAS G12D = test: In vitro transcription-translation (IVTT) reporter assay, KRAS G12D test sequence
From the text: All reporter constructs have been cloned into the pT7CFE1-CHis plasmid (ThermoFisher #88860) using Gibson assembly procedures (NEB #E2611L). The parental pT7CFE1-CHis plasmid contains an EMCV IRES at the 5′UTR for translation initiation, a multiple-cloning site (MCS) for gene insertion, an optional C-terminal His-epitope tag, and polyA sequence in the 3′UTR to regulate mRNA stability. All reporters are designed to be inserted at the MCS to include a red fluorescent protein (mCherry), P2A self-cleaving peptide which releases the preceding mCherry protein product, and a fusion open reading frame containing a 3×FLAG epitope, a peptide sequence of interest (TEST), and green fluorescent protein (sfGFP).
Construct Plasmid Preparation: All plasmids are isolated from MACH1 cells (ThermoFisher) grown overnight in ampicillin-containing luria broth, and purified using ZymoPure Express Plasmid Midiprep Kit (Zymo Research). Constructs are sequenced verified and diluted to a working concentration of 110 ng/μL.
HeLa S3 Lysate Preparation: HeLa S3 cell pellets are acquired from Ipracell/Ipratech (Belgium) and shipped as 4 mL frozen cell pellets on dry ice for storage at −80° C. until use. The procedure for lysate preparation is as follows. Prepare 1× Lysis Buffer, cold and stored on ice:
Each preparation takes 8 cell pellets (4 ml packed volume each, approximately 1.0×10^9 cells per pellet). Thaw cell pellets from −80° C. on ice for 90 mins. Lay pellets horizontally on top of the ice and rotate every 30 mins to ensure even thawing. Once thawed, add 4 mL of cold lysis buffer to each pellet, and using a serological pipet, gently pipet up and down to break up clumps. Incubate resuspended cells in ice for an additional 30 mins (plunged into ice). During 30 min incubation, rinse and RNase-zap (Ambion) glass dounces (use loose pestle “A”), gently dry and place on ice until needed. Prepare RNase-free Eppendorf tubes for spinning and for batch storage. Add batch labels to 1.5-1.7 mL RNase-free microcentrifuge tubes (labeling scheme below). Each batch will have an extra 1.5-1.7 mL RNase-free microcentrifuge tube for 40 μL of lysate, label the top of this tube (labeling scheme below). After 30 min incubation, transfer all 8 mL of cell pellet to dounce. Cell lysis is complete after douncing 100 times. Aliquot cell lysis into 1.5-1.7 mL temporary-microcentrifuge tubes. Place tubes in centrifuge with “fins” out, and spin at 1,200 xg for 5 mins. After the first spin use a 1 mL pipet to resuspend each tube and repeat spin. This acts as an additional lysis step, is more vigorous and increases lysate yield. During second spin get liquid N2 and a fresh conical tube on ice.
After spin is complete, transfer supernatant (lysate) from microcentrifuge tubes into the 50 mL conical tube and keep on ice. Repeat steps 10-14 for all other cell pellets until completed. Once all cell lysate has been transferred to the 50 mL conical tube pipet to mix so the solution is homogenous. Transfer 1 mL of lysate into batch-labeled microcentrifuge tubes and flash freeze in liquid nitrogen. Be sure to pipet up and down to mix throughout transfer step. Place all tubes in the […] for long-term storage.
In vitro transcription-translation assay setup: Each assay includes a master mix containing lysate and shared components, a 96-well plate containing compound titrations for testing, a 96-well DNA plate with reporter constructs to be tested, 96-well skirted PCR plates, and 96-well flat-bottom, black, fluorescent assay plates. […]

SMILES	IC50 (ALK) [µM]	IC50 (MYC) [µM]	IC50 (KRAS G12D) [µM]
CC(=O)O[C@@H]1[C@@H](O)CN[C@@H]1Cc1ccccc1 [V186810, (2R,3S,4S)-2-benzyl-4-hydroxy pyrrolidin-3-yl acetate]	< 10	< 10	< 10
COc1ccc(C[C@H]2NC[C@H](O)[C@H]2OC(=O)CCN2CC(=O)N(C)CC2=O)cc1 [V186850]	20 to 30	> 30	> 30
CC(=O)O[C@@H]1[C@@H](O)CN[C@@H]1Cc1ccc(-c2cn(-c3ccccc3)nn2)cc1 [V187731]	< 10	< 10	< 10
COc1ccc(C[C@H]2NC[C@H](O)[C@H]2OC(=O)C2CCO2)cc1 (stereo partly drawn) [V186865, (2R,3S,4S)-4-hydroxy-2-(4-methoxybenzyl)pyrrolidin-3-yl oxetane-2-carboxylate FA salt]	< 10	< 10	> 30
COc1ccc(C[C@H]2NC[C@H](O)[C@H]2OC(=O)CCc2cscn2)cc1 [V187173, (2R,3S,4S)-4-hydroxy-2-[(4-methoxyphenyl)methyl]pyrrolidin-3-yl 3-(1,3-thiazol-4-yl)propanoate]	< 10	< 10	< 10
COc1ccc(C[C@H]2NC[C@H](O)[C@H]2OC(=O)C2CN(Cc3ccccc3)C2)cc1 [V000173, (2R,3S,4S)-4-hydroxy-2-[(4-methoxyphenyl)methyl]pyrrolidin-3-yl 1-benzylazetidine-3-carboxylate]	> 30	> 30	> 30
CC(=O)O[C@@H]1[C@@H](O)CN[C@@H]1Cc1ccc(Br)cc1 [V187010, (2R,3S,4S)-2-[(4-bromophenyl)methyl]-4-hydroxypyrrolidin-3-yl acetate; trifluoroacetic acid]	< 10	< 10	< 10
COc1ccc(C[C@H]2NC[C@H](O)[C@H]2OC(=O)CCN2CC(=O)NC(=O)C2)cc1 [V186859, (2R,3S,4S)-4-hydroxy-2-[(4-methoxyphenyl)methyl]pyrrolidin-3-yl 3-(3,5-dioxopiperazin-1-yl)propanoate; trifluoroacetic acid]	< 10	< 10	< 10
COc1ccc(C[C@H]2NC[C@H](O)[C@H]2OC(=O)CCC(F)(F)F)cc1 [V187163, (2R,3S,4S)-4-hydroxy-2-[(4-methoxyphenyl)methyl]pyrrolidin-3-yl 4,4,4-trifluorobutanoate; trifluoroacetic acid]	< 10	< 10	< 10
COc1ccc(C[C@H]2NC[C@H](O)[C@H]2OC(=O)Cc2nnc(N)s2)cc1 [V187048, (2R,3S,4S)-4-hydroxy-2-[(4-methoxyphenyl)methyl]pyrrolidin-3-yl 2-(5-amino-1,3,4-thiadiazol-2-yl)acetate]	< 10	< 10	< 10
CCC1(C(=O)O[C@@H]2[C@@H](O)CN[C@@H]2Cc2ccc(OC)cc2)COC1 [V186781, (2R,3S,4S)-4-hydroxy-2-[(4-methoxyphenyl)methyl]pyrrolidin-3-yl 3-ethyloxetane-3-carboxylate]	> 30	> 30	> 30
COc1ccc(C[C@H]2NC[C@H](O)[C@H]2OC(=O)C(C)(C)O)cc1 [V186785, (2R,3S,4S)-4-hydroxy-2-[(4-methoxyphenyl)methyl]pyrrolidin-3-yl 2-hydroxy-2-methylpropanoate]	< 10	> 30	> 30
COc1ccc(C[C@H]2NC[C@H](O)[C@H]2OC(=O)Cc2nnn[nH]2)cc1 [V187533, (2R,3S,4S)-4-hydroxy-2-[(4-methoxyphenyl)methyl]pyrrolidin-3-yl 2-(1H−1,2,3,4-tetrazol-5-yl)acetate; trifluoroacetic acid]	< 10	10 to 20	> 30
CC(=O)O[C@@H]1[C@@H](O)CN[C@@H]1Cc1ccc(C#N)cc1 [V187006, (2R,3S,4S)-2-[(4-cyanophenyl)methyl]-4-hydroxypyrrolidin-3-yl acetate; trifluoroacetic acid]	< 10	< 10	< 10
COc1ccc(C[C@H]2NC[C@H](O)[C@H]2OC(=O)COCc2nnc(C)s2)cc1 [V187720]	< 10	< 10	< 10
COc1ccc(C[C@H]2NC[C@H](O)[C@H]2OC(=O)CCC2CC2)cc1 [V187063, (2R,3S,4S)-4-hydroxy-2-[(4-methoxyphenyl)methyl]pyrrolidin-3-yl 3-cyclopropylpropanoate; trifluoroacetic acid]	< 10	< 10	< 10
C=C(F)C(=O)O[C@@H]1[C@@H](O)CN[C@@H]1Cc1ccc(OC)cc1 [V0081, (2R,3S,4S)-4-hydroxy-2-[(4-methoxyphenyl)methyl]pyrrolidin-3-yl 2-fluoroprop-2-enoate]	> 30	> 30	> 30
COc1ccc(C[C@H]2NC[C@H](O)[C@H]2OC(=O)CCC2CCOCC2)cc1 [V186990, (2R,3S,4S)-4-hydroxy-2-[(4-methoxyphenyl)methyl]pyrrolidin-3-yl 3-(oxan-4-yl)propanoate; trifluoroacetic acid]	< 10	< 10	< 10
COCCOCC(=O)O[C@@H]1[C@@H](O)CN[C@@H]1Cc1ccc(OC)cc1 [V186783]	< 10	< 10	< 10
COc1ccc(C[C@H]2NC[C@H](O)[C@H]2OC(=O)[C@H]2CCCO2)cc1 [V186824, (2R,3S,4S)-4-hydroxy-2-[(4-methoxyphenyl)methyl]pyrrolidin-3-yl (2R)-oxolane-2-carboxylate]	< 10	> 30	> 30
COc1ccc(C[C@H]2NC[C@H](O)[C@H]2OC(=O)C2(OCc3ccccc3)CNC2)cc1 [V000192, (2R,3S,4S)-4-hydroxy-2-(4-methoxybenzyl) pyrrolidin-3-yl 3-(benzyloxy)azetidine-3-carboxylate]	> 30	> 30	> 30
COc1ccc(C[C@H]2NC[C@H](O)[C@H]2OC(=O)CCN2CCN(C)CC2)cc1 [V186858, (2R,3S,4S)-4-hydroxy-2-[(4-methoxyphenyl)methyl]pyrrolidin-3-yl 3-(4-methylpiperazin-1-yl)propanoate; trifluoroacetic acid]	> 30	> 30	> 30
COc1ccc(C[C@H]2NC[C@H](O)[C@H]2OC(=O)CC2COC2)cc1 [V0111, (2R,3S,4S)-4-hydroxy-2-[(4-methoxyphenyl)methyl]pyrrolidin-3-yl 2-(oxetan-3-yl)acetate]	< 10	< 10	< 10
CC(=O)O[C@@H]1[C@@H](O)CN[C@@H]1Cc1ccc(Cl)cc1 [V187009, (2R,3S,4S)-2-[(4-chlorophenyl)methyl]-4-hydroxypyrrolidin-3-yl acetate; trifluoroacetic acid]	< 10	< 10	< 10
COc1ccc(C[C@H]2NC[C@H](O)[C@H]2OC(=O)Cc2cc3ccccc3s2)cc1 [V187053, (2R,3S,4S)-4-hydroxy-2-[(4-methoxyphenyl)methyl]pyrrolidin-3-yl 2-(1-benzothiophen-2-yl)acetate]	< 10	< 10	< 10
COc1ccc(C[C@H]2NC[C@H](O)[C@H]2OC(=O)COCc2ccon2)cc1 [V187368, (2R,3S,4S)-4-hydroxy-2-[(4-methoxyphenyl)methyl]pyrrolidin-3-yl 2-(1,2-oxazol-3-ylmethoxy)acetate]	< 10	< 10	< 10
